Results as given in patent publication US11999697B2, “Methods and compositions for inhibition of dihydroorotate dehydrogenase” (OHIO STATE INNOVATION FOUNDATION, priority 2018, dated 2024).
Like-named read-outs stand apart in the source and are kept apart here.

Assays:
[1] = system: murine AML cells (Tet2-KO/Flt3-ITD, IDH2-R140Q/Flt3-ITD); test: MTS assay on murine AML bone marrow cells ex vivo; format: cell-based, mice; conditions: 0-10 μM, 96 hours
Text: Triplicate wells were set up for each condition.
In particular, the in vivo effects of Cpd3 on the immune repertoire is important in view of previous reports describing DHODH inhibitors as having diverse effects on innate and cellular immune function. FIGS. 9A-9B show representative data for proliferation of murine AML cells in the presence of a representative disclosed compound, Cpd3, compared to a reference compound, brequinar (indicated as “BQR” in the figure). […] Briefly, bone marrow cells were isolated from leukemic Tet2-KO/Flt3-ITD mice (FIG. 9A; N=7) or leukemic IDH2-R140Q/Flt3-ITD mice (FIG. 9B; N=3) were treated ex vivo with Cpd3 or BQR (dose range 0-10 μM). Cell growth was determined at 96 hours relative to the vehicle (DMSO) control using a MTS cell proliferation assay as described herein below.

[2] = system: normal T-cells (CD4, CD8); test: CFSE proliferation assay; format: cell-based, human; conditions: 0.3 and 1 μM, CD3/CD28 stimulation, 72 hours
Method: CFSE proliferation assays: Peripheral blood mononuclear cells from healthy adults were negatively selected to enrich for CD3, CD4, or CD8 T-cells. Cells were then stained with carboxyfluorescein succinimidyl ester (CSFE) and stimulated with plate bound anti-CD3 and soluble anti-CD28 antibodies. Proliferation was determined by CFSE dilution in the presence of vehicle or Cpd3 (0.3 and 1 μM doses) at 72 hours.
FIGS. 7A-7I show representative cell proliferation data for normal T-cells following treatment with vehicle or a representative disclosed compound, Cpd3 in the presence or absence of CD3/CD28 stimulation using a CSFE proliferation flow cytometry assay as described herein below. Briefly, T-cells were isolated from normal healthy donors, labeled with CSFE, and then either left unstimulated or co-stimulated with CD3/CD28 in the presence of vehicle or Cpd3 (0.3 and 1 μM doses) for 72 hours. Proliferation was determined by CSFE dilution in CD4 and CD8 T-cells. Data shown in FIGS. 7A-7H were obtained from one representative normal donor.

primary human AML cells = test: Flow cytometry staining for differentiation (CD11b/CD14); format: cell-based; conditions: 1 μM, 14 days
Method: Flow cytometry staining for differentiation: Primary AML cells were solubilized from the methocult in the CFU assays. 5e5 cells were stained and analyzed by flow cytometry as follows: Gating on CD45 positive hematopoietic cells; B, T and NK-cells were identified using CD19, CD3 and NK1.1 surface markers; differentiation in the myeloid population was assessed by gating on CD34/CD33 positive myeloid cells and staining for CD11 b and CD14.
FIGS. 5A-5E show representative flow cytometry data for induction of CD11b and CD14 positive cells in primary human AML cells following vehicle treatment, treatment with a representative disclosed compound, Cpd3, or treatment with a reference compound, brequinar (indicated as “BQR” in the figures) using methods as described herein below. Briefly, primary AML cells were treated with vehicle (DMSO), Cpd3 (1 μM) or brequinar (BQR, 1 μM) and plated in methylcellulose for 14 days. Cells were recovered from the methylcellulose and characterized by flow cytometry (gating on CD34/CD33 positive myeloid cells and staining for CD11b and CD14). FIGS. 5A-5C show the percentage of CD11b and CD14 positive cells within the live CD33/CD34 positive population for a representative “responder” sample. FIGS. 5D and 5E show collective data for eight primary AML samples. […]

MV4-11 = test: MTS cell proliferation assay, MV4-11; format: cell-based; conditions: for IC50: Homo sapiens, MV4-11, MTS
DHODH = molecular target: T1, DHODH (Homo sapiens, UniProt Q02127); test: DHODH enzymatic assay (DCIP reduction); format: biochemical
T1 construct: made in house
T1 sequence (Q02127 whole entry): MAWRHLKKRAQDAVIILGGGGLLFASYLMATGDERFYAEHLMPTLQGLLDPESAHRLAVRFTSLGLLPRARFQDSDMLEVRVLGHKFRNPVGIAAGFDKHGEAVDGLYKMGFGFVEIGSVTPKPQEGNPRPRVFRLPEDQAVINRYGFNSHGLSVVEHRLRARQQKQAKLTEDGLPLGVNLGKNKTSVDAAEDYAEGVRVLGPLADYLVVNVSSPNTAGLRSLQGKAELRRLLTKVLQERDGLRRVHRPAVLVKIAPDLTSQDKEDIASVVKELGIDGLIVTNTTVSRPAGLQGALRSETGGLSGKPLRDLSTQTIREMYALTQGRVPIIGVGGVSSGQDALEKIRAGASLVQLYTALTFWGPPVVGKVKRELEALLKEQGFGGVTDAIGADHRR
Method: DHODH Enzymatic Assay: DHODH activity was determined at 25° C. following the reduction of 2,6-dichloroindophenol sodium salt (DCIP) at 600 nm (ε=18 800 M^−1 cm^−1) on a spectrophotometer. The reaction medium used contained 50 mM Tris-HCl, pH 8.0, 0.1% Triton X-100, 0.1 mM LDHO, 0.025 mM CoQ1, and 0.06 mM DCIP. The reaction was started by addition of the enzyme. The inhibitory potency of the compounds was evaluated by measuring the initial velocity of the reaction either in the absence or in the presence of the compounds at the indicated concentrations. The DHODH enzyme used was the recombinant human enzyme prepared as previously described (Helene Munier-Lehmann, et al., J. Med. Chem. 2015, 58:860-877).

[3] = system: luciferase-expressing MOLM-13 cells; test: MOLM13 xenograft study, 10 mg/kg; format: in vivo, NCG mice; conditions: 10 mg/kg oral gavage, three or five days per week, Days 7 and 14
Method: The effect of a representative disclosed compound, Cpd3, on in vivo tumor growth was assessed in a MOLM13 xenograft study. Briefly, male NCG (NOD-Prkdc^em26Cd52//2rg^em26Cd22/NjuCrl) mice (N=12 per group) were given an intravenous injection of 1×10^4 luciferase-expressing MOLM-13 cells. […] Therefore at 3 days post-engraftment (day 0 treatment), mice were injected with luciferin, imaged for leukemia burden, and began dosing with Cpd3 (10 mg/kg daily by oral gavage) or vehicle control (15% ethanol, 30% PEG-400 in PBS). Mice were treated on two different dosing schedules: Cpd3 three days per week (Mon, Wed and Fri) or five days per week (Mon through Fri). Mice on the Mon, Wed, Fri schedule received a vehicle on Tues and Thurs, so that all mice were consistently gavaged five days per week. In addition to day 0, mice were monitored once weekly (days 7 and 14 post-treatment) by IVIS imaging. In order to assess tumor burden, mice were injected with luciferin and imaged on an IVIS imager Days 0, 7, and 14. […] The data for tumor burden at Day 7 (FIG. 11B) and Day 14 (FIG. 11C) is summarized in bar graph format.

CCOc1ccc(-c2ccc(-c3cc(C(=O)O)c4cc(F)ccc4n3)cc2)cc1 [Cpd3, 2-(4′-ethoxy-[1,1′-biphenyl]-4-yl)-6-fluoroquinoline-4-carboxylic acid]
potency on murine leukemic cells ex vivo relative to BQR [1]: a log fold more potent than BQR
T-cell proliferation [2]: inhibits T-cell proliferation
induction of CD11b and CD14 positive cells (primary human AML cells): induces CD11 b and CD14 in primary human AML cells
rescue of cytotoxic effects by uridine (MV4-11; 0.25 or 0.5 μM compound, uridine 0 to 200 μM, 96 hours): rescued by growth in the presence of uridine
IC50 (MV4-11; 96 hour, Table 7, read-out: 96 hour IC50 (nM) in MV-411 cell line): ~500 nM
IC50 (MV4-11; 96 hours, read-out: IC50 (μM) at 96 hours, MV4-11): 670 nM
DHODH inhibition, % inhibition (DHODH; compound concentration not given): 97%
IC50 (DHODH; range in parentheses, read-out: DHODH inhibition, IC50): 43 nM
tumor burden (luciferase expression by IVIS imaging) [3]: able to reduce the tumor burden in the mice
